We go through 14 compounds from patent publication US7981903B2, “2-[2-{phenylamino}-1H-pyrrolo[2,3-D]pyrimidin-4-yl)amino] benzamide derivatives as IGF-1R inhibitors for the treatment of cancer” (GlaxoSmithKline LLC, priority 2007, dated 2011).

Molecules are shown by their SMILES. Values joined by “and” are separate entries in the source; they are usually repeats but may differ in a detail not shown here. Equal values may be shown once.

The target of assay [1] is T1, human IGF1R (hIGF1R) (Homo sapiens, UniProt P08069).
T1 construct: containing amino acid residues 957-1367 of human IGF1R; made in house; host or cells: Sf9 cells (baculovirus)
T1 sequence (P08069 957-1367): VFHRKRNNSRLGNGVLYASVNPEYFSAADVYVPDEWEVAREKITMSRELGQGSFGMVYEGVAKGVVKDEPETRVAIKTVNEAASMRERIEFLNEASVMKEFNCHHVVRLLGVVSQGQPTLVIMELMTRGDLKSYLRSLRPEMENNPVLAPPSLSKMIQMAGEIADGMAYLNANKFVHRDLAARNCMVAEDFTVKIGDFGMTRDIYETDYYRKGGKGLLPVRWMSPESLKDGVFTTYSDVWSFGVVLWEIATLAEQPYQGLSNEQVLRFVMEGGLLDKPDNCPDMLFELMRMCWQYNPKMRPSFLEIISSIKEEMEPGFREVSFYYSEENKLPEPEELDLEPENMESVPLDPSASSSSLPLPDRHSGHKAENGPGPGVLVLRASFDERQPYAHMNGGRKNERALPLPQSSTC
Put plainly: TR-FRET kinase assay of purified hIGF1R. The assay is classed as biochemical. As to conditions: activated hIGF1R 0.5 nM, 10 μM ATP, values given as pIC50 category, read-out: IGF-1R pIC50 (converted). In general terms: Time-resolved FRET reads energy transfer from a long-lived donor to a nearby acceptor.

The target of assay [2] is T2, human IR (hIR) (Homo sapiens, UniProt P06213).
T2 construct: containing amino acid residues 979-1382 of human IR; made in house; host or cells: Sf9 cells (baculovirus), same process as hIGF1R
T2 sequence (P06213 979-1382): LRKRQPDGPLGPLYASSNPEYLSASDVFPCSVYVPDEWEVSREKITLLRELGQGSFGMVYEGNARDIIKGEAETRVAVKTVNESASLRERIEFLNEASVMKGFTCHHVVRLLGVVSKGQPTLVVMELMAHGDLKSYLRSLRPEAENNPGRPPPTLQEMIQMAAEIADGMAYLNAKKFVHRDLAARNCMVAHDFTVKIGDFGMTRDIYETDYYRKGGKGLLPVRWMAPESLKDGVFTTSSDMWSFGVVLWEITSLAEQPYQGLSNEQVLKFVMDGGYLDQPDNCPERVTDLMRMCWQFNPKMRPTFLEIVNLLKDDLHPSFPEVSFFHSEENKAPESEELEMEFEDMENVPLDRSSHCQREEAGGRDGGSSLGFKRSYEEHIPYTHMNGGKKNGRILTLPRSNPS
Put plainly: TR-FRET kinase assay of purified hIR. The assay is classed as biochemical. As to conditions: activated hIR 0.5 nM, 10 μM ATP, values given as pIC50 category.

Assay [3] concerns NCI-H929. As to the kind of experiment: Inhibition of cell proliferation (CellTiter-Glo or InCell analyzer), NCI-H929. As to conditions: Homo sapiens, 72 h / 3 days, values given as IC50 category. The assay is classed as cell-based. As for the experimental part:
(§1) Cell proliferation was measured by either CellTiter-Glo (measures cellular ATP level as a surrogate for total cell number) or by InCell analyzer (counts number of nuclei as a measure of cell number).
(§2) For CellTiter-Glo assay, exponentially growing cell lines of different tumor origins, cultured in appropriate media containing 10% fetal bovine serum at 37° C. in a 5% CO2 incubator, were plated at low density (less than 2000cells/well) in 96-well plates. Twenty four hours post-plating, cells were treated with different concentrations of test compounds ranging from 30 uM to 1.5 nM. Several wells were left untreated as a control. Seventy two hours post-treatment, cell numbers were determined using 50-100 ul per well of CellTiter-Glo (Promega #G7573). Plates were incubated at 37° C. for 30 minutes and the chemiluminescent signal was read on the Victor V or Envison 2100 reader.
(§3) For InCell Analyser assay, various cell lines of different tumor origins were grown to 70-80% confluency in appropriate culture media containing 10% fetal bovine serum at 37° C. in a 5% CO2 incubator. On day −1, cells were seeded at 2 densities in 384-well plates and incubated at 37° C. overnight. Stock compound plates were prepared in advance which contained dimethyl sulfoxide (DMSO) alone and a 9-point half-log decreasing dose range of the compound in DMSO. The compound plates were stored at −80° C. and each plate was only thawed once and used. On day 0, the main assay plates received compound or DMSO via a sonic delivery system (ECHO). The highest final concentration of compound of the dose range in the culture plates was 10 uM. These plates were cultured at 37° C. for 3 days. […] On day 3, the compound treated plates were stained and fixed to measure proliferation, apoptosis, and mitotic index using an InCelL1000 analyser. A nuclear stain was used to identify cells in the wells. By counting the number of nuclei, the proliferation index of compound treated groups were calculated as a percentage relative to the DMSO control, which was set to 100%. The IC50 values were calculated using model 205 in ExcelFit.
(§4) IC50 (nM) values for compounds of select examples were categorized by relative inhibition of cell proliferation.

Assay [4] deals with Colo205. As to the kind of experiment: Inhibition of cell proliferation (CellTiter-Glo or InCell analyzer), Colo205. The assay is classed as cell-based. Particulars: Homo sapiens, COLO 205, 72 h / 3 days, values given as IC50 category. As for the experimental part:
as §1, §2, §3, §4
For orientation: ATP-based viability assays read luminescence as a measure of living cells.

Assay [5] addresses ALK (Homo sapiens, UniProt Q9UM73). As to the kind of experiment: ALK enzyme assay (HTRF). The assay is classed as biochemical. As to conditions: 0.25 nM ALK, 15.0 μM ATP, values given as pIC50 category. The procedure, abridged: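 Final compound range 0.00017 to 10 μM (twelve 1:3 dilutions). Kinase reaction with ATP and biotinylated synthetic peptide runs 120 min at 20° C, stopped with EDTA; phosphotyrosine detected by HTRF after 60 min. Inhibition referenced to DMSO (1%) and EDTA (0.1 M) controls, curve-fitted.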

Sequence of ALK (Q9UM73 19-1620): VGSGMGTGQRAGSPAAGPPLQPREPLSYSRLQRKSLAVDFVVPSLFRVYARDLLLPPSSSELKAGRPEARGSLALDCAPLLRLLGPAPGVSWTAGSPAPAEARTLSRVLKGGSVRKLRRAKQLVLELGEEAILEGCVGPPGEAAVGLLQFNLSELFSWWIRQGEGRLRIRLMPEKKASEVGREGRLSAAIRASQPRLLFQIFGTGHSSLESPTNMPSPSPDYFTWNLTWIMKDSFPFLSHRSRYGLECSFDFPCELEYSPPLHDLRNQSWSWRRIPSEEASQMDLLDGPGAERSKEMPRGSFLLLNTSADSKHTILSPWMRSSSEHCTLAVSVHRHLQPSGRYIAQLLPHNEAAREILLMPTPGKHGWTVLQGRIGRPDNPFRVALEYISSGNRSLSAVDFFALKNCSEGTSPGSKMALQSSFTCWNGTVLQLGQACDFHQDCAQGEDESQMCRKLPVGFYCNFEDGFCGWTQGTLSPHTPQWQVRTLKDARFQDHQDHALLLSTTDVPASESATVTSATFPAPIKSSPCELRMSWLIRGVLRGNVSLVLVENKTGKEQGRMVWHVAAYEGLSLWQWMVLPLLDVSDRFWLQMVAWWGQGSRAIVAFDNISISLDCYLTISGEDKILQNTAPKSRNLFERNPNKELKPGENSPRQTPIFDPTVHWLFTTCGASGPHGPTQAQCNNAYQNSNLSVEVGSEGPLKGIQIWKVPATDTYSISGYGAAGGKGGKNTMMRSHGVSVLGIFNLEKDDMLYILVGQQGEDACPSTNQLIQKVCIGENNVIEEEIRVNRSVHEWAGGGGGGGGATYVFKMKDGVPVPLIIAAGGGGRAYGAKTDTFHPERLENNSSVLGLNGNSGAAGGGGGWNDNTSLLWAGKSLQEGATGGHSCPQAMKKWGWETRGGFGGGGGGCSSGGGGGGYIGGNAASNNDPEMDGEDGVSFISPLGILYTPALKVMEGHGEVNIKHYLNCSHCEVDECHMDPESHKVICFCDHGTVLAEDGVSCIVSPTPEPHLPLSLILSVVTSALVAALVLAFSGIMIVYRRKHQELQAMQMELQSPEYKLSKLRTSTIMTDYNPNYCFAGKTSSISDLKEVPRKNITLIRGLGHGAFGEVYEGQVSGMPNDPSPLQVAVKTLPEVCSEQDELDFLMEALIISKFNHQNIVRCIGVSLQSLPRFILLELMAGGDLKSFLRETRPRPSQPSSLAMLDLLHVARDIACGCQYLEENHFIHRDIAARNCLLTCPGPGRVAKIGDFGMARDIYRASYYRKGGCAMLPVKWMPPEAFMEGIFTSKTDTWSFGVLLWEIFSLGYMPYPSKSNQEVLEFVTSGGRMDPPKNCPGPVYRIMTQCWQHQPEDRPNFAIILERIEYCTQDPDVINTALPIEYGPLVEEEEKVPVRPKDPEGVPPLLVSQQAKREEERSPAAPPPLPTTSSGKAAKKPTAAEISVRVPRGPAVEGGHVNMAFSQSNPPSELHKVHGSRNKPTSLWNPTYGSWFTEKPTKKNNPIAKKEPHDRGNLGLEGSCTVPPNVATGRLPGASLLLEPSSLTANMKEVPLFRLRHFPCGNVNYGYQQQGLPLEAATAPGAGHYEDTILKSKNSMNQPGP

As to `CNC(=O)c1c(Nc2nc(Nc3cc4c(cc3OC)CCN4C(=O)CN(C)C)nc3[nH]ccc23)ccc(F)c1F` [Example 160, 6-[(2-{[1-(N,N-dimethylglycyl)-5-(methyloxy)-2,3-dihydro-1H-indol-6-yl]amino}-1H-pyrrolo[2,3-d]pyrimidin-4-yl)amino]-2,3-difluoro-N-methylbenzamide], the IC50 was 1.26 to 3.98 nM in assay [1]; 1.26 to 3.98 nM in assay [2]; below 250 nM in assay [3]; 250 to 1000 nM in assay [4]; 1.26 to 3.98 nM in assay [5].
With `COc1cc2c(cc1Nc1nc(Nc3ccc(F)c(F)c3C(N)=O)c3cc[nH]c3n1)N(C(=O)CN(C)C)CC2` [Example 159, 6-[(2-{[1-(N,N-dimethylglycyl)-5-(methyloxy)-2,3-dihydro-1H-indol-6-yl]amino}-1H-pyrrolo[2,3-d]pyrimidin-4-yl)amino]-2,3-difluorobenzamide], the IC50 in assay [1] was 1.26 to 3.98 nM; in assay [2], 1.26 to 3.98 nM; in assay [3], below 250 nM; in assay [4] it was below 250 nM; in assay [5] it was 1.26 to 3.98 nM.
For the compound `COc1cc2c(cc1Nc1nc(Nc3cccc(F)c3C(N)=O)c3cc[nH]c3n1)N(C(=O)CN(C)C)CCC2(C)C` [Example 225, 2-[(2-{[1-(N,N-dimethylglycyl)-4,4-dimethyl-6-(methyloxy)-1,2,3,4-tetrahydro-7-quinolinyl]amino}-1H-pyrrolo[2,3-d]pyrimidin-4-yl)amino]-6-fluorobenzamide], the IC50 in assay [1] was 0.251 to 1 nM; in assay [2], 0.251 to 1 nM; in assay [3], below 250 nM; in assay [4], below 250 nM; in assay [5] it was 0.251 to 1 nM.
For `COc1cc2c(cc1Nc1nc(Nc3cccc(F)c3C(N)=O)c3cc[nH]c3n1)N(C(=O)CN1CCCC1)CCC2(C)C` [Example 223, 2-[(2-{[4,4-dimethyl-6-(methyloxy)-1-(1-pyrrolidinylacetyl)-1,2,3,4-tetrahydro-7-quinolinyl]amino}-1H-pyrrolo[2,3-d]pyrimidin-4-yl)amino]-6-fluorobenzamide], the IC50 in assay [1] was 0.251 to 1 nM; in assay [2], 0.251 to 1 nM; in assay [3], below 250 nM; in assay [4], below 250 nM; in assay [5], 0.251 to 1 nM.
With `CNC(=O)c1c(F)cccc1Nc1nc(Nc2cc3c(cc2C)CCCN3C(=O)CN(C)C)nc2[nH]ccc12` [Example 247, 2-[(2-{[1-(N,N-dimethylglycyl)-6-methyl-1,2,3,4-tetrahydro-7-quinolinyl]amino}-1H-pyrrolo[2,3-d]pyrimidin-4-yl)amino]-6-fluoro-N-methylbenzamide], the values for the IC50 in assay [1], in assay [3] and in assay [4] were 5.01 to 200 nM, 250 to 1000 nM and above 1000 nM, respectively.
Take `CNC(=O)c1c(F)cccc1Nc1nc(Nc2cc3c(cc2OC)CCN3C(=O)[C@@H](C)N(C)C)nc2[nH]ccc12` [Example 195, 2-[(2-{[1-(N,N-dimethyl-D-alanyl)-5-(methyloxy)-2,3-dihydro-1H-indol-6-yl]amino}-1H-pyrrolo[2,3-d]pyrimidin-4-yl)amino]-6-fluoro-N-methylbenzamide]: the IC50 in assay [1] is 1.26 to 3.98 nM; in assay [2], 1.26 to 3.98 nM; in assay [3], 250 to 1000 nM; in assay [4], 250 to 1000 nM; in assay [5] it was 1.26 to 3.98 nM.
Consider `CNC(=O)c1c(F)cccc1Nc1nc(Nc2cc3c(cc2OC)C(C)(C)CCN3C(=O)CN(C)C)nc2[nH]ccc12` [Example 226, 2-[(2-{[1-(N,N-dimethylglycyl)-4,4-dimethyl-6-(methyloxy)-1,2,3,4-tetrahydro-7-quinolinyl]amino}-1H-pyrrolo[2,3-d]pyrimidin-4-yl)amino]-6-fluoro-N-methylbenzamide], for which the IC50 in assay [1] is 0.251 to 1 nM; in assay [2], 0.251 to 1 nM; in assay [3], below 250 nM; in assay [4] it was 250 to 1000 nM.
Take `CNC(=O)c1c(F)cc(Cl)cc1Nc1nc(Nc2cc3c(cc2OC)CCCN3C(=O)CN(C)C)nc2[nH]ccc12` [Example 172, 4-chloro-2-[(2-{[1-(N,N-dimethylglycyl)-6-(methyloxy)-1,2,3,4-tetrahydro-7-quinolinyl]amino}-1H-pyrrolo[2,3-d]pyrimidin-4-yl)amino]-6-fluoro-N-methylbenzamide]: the IC50 in assay [3] is below 250 nM; in assay [4], 250 to 1000 nM; in assay [5] it was 1.26 to 3.98 nM.
As to `COc1cc2c(cc1Nc1nc(Nc3cccc(F)c3C(N)=O)c3cc[nH]c3n1)NC(=O)CC2(C)C` [Example 227, 2-[(2-{[4,4-dimethyl-6-(methyloxy)-2-oxo-1,2,3,4-tetrahydro-7-quinolinyl]amino}-1H-pyrrolo[2,3-d]pyrimidin-4-yl)amino]-6-fluorobenzamide], the IC50 is 1.26 to 3.98 nM in assay [1]; 0.251 to 1 nM in assay [2]; 250 to 1000 nM in assay [3]; 250 to 1000 nM in assay [4]; 1.26 to 3.98 nM in assay [5].
In the case of `CNC(=O)c1c(F)cccc1Nc1nc(Nc2cc3c(cc2OC)CCN3C(=O)[C@H](C)N(C)C)nc2[nH]ccc12` [Example 194, 2-[(2-{[1-(N,N-dimethyl-L-alanyl)-5-(methyloxy)-2,3-dihydro-1H-indol-6-yl]amino}-1H-pyrrolo[2,3-d]pyrimidin-4-yl)amino]-6-fluoro-N-methylbenzamide], the IC50 in assay [1] is 1.26 to 3.98 nM; in assay [2] it was 1.26 to 3.98 nM; in assay [3], below 250 nM; in assay [4], below 250 nM; in assay [5], 0.251 to 1 nM.
`COc1cc2c(cc1Nc1nc(Nc3cc(F)cc(F)c3C(N)=O)c3cc[nH]c3n1)N(C(=O)[C@@H]1CCCN1C)CC2` [Example 148, 2,4-difluoro-6-[(2-{[5-(methyloxy)-1-(1-methyl-L-prolyl)-2,3-dihydro-1H-indol-6-yl]amino}-1H-pyrrolo[2,3-d]pyrimidin-4-yl)amino]benzamide]: the IC50 is 1.26 to 3.98 nM in assay [1]; 1.26 to 3.98 nM in assay [2]; 250 to 1000 nM in assay [3]; 250 to 1000 nM in assay [4]; 5.01 to 200 nM in assay [5].
With `CNC(=O)c1c(F)cccc1Nc1nc(Nc2cc3c(cc2OC)C(C)(C)CCN3C(=O)CN2CCCC2)nc2[nH]ccc12` [Example 224, 2-[(2-{[4,4-dimethyl-6-(methyloxy)-1-(1-pyrrolidinylacetyl)-1,2,3,4-tetrahydro-7-quinolinyl]amino}-1H-pyrrolo[2,3-d]pyrimidin-4-yl)amino]-6-fluoro-N-methylbenzamide], the IC50 in assay [1] was 0.251 to 1 nM; in assay [2], 0.251 to 1 nM; in assay [3], below 250 nM; in assay [4] it was 250 to 1000 nM; in assay [5], 1.26 to 3.98 nM and 0.251 to 1 nM.
Take `CNC(=O)c1c(F)cccc1Nc1nc(Nc2cc3c(cc2OC)CCN3C(=O)CN(C)C)nc2[nH]ccc12` [Example 116, 2-[(2-{[1-(N,N-dimethylglycyl)-5-(methyloxy)-2,3-dihydro-1H-indol-6-yl]amino}-1H-pyrrolo[2,3-d]pyrimidin-4-yl)amino]-6-fluoro-N-methylbenzamide]: the IC50 is below 250 nM in assay [3] and 250 to 1000 nM in assay [4].
Take `COc1cc2c(cc1Nc1nc(Nc3cc(Cl)cc(F)c3C(N)=O)c3cc[nH]c3n1)N(C(=O)CN(C)C)CCC2` [Example 171, 4-chloro-2-[(2-{[1-(N,N-dimethylglycyl)-6-(methyloxy)-1,2,3,4-tetrahydro-7-quinolinyl]amino}-1H-pyrrolo[2,3-d]pyrimidin-4-yl)amino]-6-fluorobenzamide]: the IC50 in assay [3] was below 250 nM; in assay [4], below 250 nM; in assay [5], 0.251 to 1 nM.
